ChEMBL document CHEMBL5550132, “Structure-activity relationship in NOD2 agonistic muramyl dipeptides” (Eur J Med Chem, 2024)

What was measured:
[1] = biological target: T1, Nuclear factor NF-kappa-B complex (Homo sapiens) (UniProt Q00653+P19838+Q04206); assay: Activation of NF-kappaB in HEK-Blue hNOD2 cells assessed as fold change at 10 nM incubated for 48 hrs by SEAP reporter assay; type: cell-based; details: filed as activator
[2] = biological target: Nucleotide-binding oligomerization domain-containing protein 2 (Homo sapiens, UniProt Q9HC29); assay: Agonist activity at NOD2 (unknown origin)
Chain of Nucleotide-binding oligomerization domain-containing protein 2 (Q9HC29 whole entry, the tested form may be a part): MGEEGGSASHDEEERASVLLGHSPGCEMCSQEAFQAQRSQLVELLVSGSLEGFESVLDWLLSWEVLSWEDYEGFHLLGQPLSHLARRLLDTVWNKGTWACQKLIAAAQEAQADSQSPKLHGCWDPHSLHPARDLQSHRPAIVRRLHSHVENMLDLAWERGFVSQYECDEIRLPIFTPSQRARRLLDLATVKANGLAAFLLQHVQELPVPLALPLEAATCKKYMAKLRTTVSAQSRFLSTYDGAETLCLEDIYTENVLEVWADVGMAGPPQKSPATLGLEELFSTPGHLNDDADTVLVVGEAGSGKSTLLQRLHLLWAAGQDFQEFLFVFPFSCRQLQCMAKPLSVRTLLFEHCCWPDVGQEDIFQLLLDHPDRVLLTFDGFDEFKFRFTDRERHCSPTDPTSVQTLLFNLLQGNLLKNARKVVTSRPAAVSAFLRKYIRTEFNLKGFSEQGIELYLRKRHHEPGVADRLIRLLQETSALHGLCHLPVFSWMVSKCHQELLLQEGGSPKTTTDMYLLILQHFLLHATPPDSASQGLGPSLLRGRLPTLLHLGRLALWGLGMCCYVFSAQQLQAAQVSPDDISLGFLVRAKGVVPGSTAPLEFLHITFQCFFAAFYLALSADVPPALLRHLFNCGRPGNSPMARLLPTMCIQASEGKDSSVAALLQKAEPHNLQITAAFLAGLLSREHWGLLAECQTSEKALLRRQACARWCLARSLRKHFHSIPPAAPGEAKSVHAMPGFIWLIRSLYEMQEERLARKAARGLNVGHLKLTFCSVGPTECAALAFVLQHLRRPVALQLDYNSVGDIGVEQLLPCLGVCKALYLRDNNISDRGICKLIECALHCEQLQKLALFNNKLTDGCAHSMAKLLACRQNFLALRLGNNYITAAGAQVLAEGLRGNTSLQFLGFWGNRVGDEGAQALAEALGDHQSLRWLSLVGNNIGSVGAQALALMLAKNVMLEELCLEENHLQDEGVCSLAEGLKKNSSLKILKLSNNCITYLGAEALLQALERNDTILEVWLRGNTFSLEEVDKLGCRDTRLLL

Cavia porcellus [3] = species: Cavia porcellus; assay: Induction of delayed type hypersensitivity in ABA-BSA immunized Hartley Guinea pigs assessed as reduction in skin lesions at 100 ug measured for 24 hrs; type: functional; details: dose 100 µg
Cavia porcellus [4] = species: Cavia porcellus; assay: Induction of delayed type hypersensitivity in ABA-BSA immunized Hartley Guinea pigs assessed as reduction in skin lesions at 100 ug measured for 48 hrs; type: functional; details: dose 100 µg
[5] = biological target: T1, Nuclear factor NF-kappa-B complex (Homo sapiens); assay: Activation of NF-kappaB in HEK-Blue hNOD2 cells assessed as fold change at 100 nM incubated for 48 hrs by SEAP reporter assay; type: cell-based; details: filed as activator
[6] = biological target: T1, Nuclear factor NF-kappa-B complex (Homo sapiens); assay: Activation of NF-kappaB in HEK-Blue hNOD2 cells assessed as fold change at 1000 nM incubated for 48 hrs by SEAP reporter assay; type: cell-based; details: filed as activator
[7] = biological target: T1, Nuclear factor NF-kappa-B complex (Homo sapiens); assay: Activation of NF-KappaB (unknown origin) expressed in HEK293T cells assessed as fold change at 100 ng incubated for 12 hrs by Renilla luciferase assay; type: cell-based; details: filed as activator
[8] = biological target: T1, Nuclear factor NF-kappa-B complex (Homo sapiens); assay: Activation of NF-KappaB (unknown origin) expressed in HEK293T cells assessed as fold change at 1000 ng incubated for 12 hrs by Renilla luciferase assay; type: cell-based; details: filed as activator
[9] = biological target: T1, Nuclear factor NF-kappa-B complex (Homo sapiens); assay: Activation of NF-KappaB (unknown origin) expressed in HEK293T cells assessed as fold change at 10 ng incubated for 12 hrs by Renilla luciferase assay; type: cell-based; details: filed as activator

T1 sequence (P19838 whole entry, looked up, the tested form may be a part): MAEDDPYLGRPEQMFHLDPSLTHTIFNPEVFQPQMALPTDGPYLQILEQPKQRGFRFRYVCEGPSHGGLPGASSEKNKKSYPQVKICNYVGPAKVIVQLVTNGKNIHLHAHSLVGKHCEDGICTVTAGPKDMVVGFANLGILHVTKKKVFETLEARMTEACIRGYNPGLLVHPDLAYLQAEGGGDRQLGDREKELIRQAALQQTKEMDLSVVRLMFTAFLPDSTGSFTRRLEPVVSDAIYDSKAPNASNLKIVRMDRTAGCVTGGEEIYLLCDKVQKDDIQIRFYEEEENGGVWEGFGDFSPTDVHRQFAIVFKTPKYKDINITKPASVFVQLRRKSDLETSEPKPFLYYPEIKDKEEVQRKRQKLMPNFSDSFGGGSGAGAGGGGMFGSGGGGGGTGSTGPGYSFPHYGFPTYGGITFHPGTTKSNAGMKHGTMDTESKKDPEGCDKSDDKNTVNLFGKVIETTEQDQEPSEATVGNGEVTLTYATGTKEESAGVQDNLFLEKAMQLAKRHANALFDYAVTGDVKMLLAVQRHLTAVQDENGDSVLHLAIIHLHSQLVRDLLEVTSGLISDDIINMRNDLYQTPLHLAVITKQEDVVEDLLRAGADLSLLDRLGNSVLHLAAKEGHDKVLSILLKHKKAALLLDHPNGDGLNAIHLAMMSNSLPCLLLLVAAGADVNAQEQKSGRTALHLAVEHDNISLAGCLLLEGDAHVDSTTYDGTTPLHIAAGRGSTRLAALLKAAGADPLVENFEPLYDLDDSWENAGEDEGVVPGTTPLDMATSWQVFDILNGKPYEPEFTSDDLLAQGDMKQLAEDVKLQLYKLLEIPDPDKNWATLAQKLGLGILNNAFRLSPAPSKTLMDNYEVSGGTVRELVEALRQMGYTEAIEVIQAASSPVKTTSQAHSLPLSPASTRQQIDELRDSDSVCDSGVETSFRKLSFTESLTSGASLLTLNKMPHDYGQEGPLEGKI
T1 sequence (Q00653 whole entry, looked up, the tested form may be a part): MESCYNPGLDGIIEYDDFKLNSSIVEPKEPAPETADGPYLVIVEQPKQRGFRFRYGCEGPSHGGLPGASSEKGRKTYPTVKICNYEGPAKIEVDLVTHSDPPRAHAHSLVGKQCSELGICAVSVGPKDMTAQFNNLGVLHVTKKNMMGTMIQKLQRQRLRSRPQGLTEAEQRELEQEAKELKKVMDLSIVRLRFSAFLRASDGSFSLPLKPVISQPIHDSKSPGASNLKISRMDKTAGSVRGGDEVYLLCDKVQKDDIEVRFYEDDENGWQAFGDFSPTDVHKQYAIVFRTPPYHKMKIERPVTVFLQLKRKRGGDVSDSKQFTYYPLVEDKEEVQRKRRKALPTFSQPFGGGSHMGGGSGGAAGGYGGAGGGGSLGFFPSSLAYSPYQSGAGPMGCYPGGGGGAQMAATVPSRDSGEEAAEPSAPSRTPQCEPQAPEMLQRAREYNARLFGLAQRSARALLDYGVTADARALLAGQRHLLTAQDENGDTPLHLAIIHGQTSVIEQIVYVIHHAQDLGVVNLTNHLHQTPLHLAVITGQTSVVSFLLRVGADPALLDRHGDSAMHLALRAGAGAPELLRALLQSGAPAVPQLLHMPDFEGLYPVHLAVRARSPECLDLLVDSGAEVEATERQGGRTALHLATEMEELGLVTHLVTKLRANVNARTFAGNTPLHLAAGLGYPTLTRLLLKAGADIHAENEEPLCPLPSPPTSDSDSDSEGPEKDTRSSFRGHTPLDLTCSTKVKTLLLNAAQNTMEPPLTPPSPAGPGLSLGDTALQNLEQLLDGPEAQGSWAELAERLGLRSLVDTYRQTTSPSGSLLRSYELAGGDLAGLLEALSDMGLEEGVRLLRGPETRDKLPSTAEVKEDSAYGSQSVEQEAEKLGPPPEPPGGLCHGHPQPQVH
T1 sequence (Q04206 whole entry, looked up, the tested form may be a part): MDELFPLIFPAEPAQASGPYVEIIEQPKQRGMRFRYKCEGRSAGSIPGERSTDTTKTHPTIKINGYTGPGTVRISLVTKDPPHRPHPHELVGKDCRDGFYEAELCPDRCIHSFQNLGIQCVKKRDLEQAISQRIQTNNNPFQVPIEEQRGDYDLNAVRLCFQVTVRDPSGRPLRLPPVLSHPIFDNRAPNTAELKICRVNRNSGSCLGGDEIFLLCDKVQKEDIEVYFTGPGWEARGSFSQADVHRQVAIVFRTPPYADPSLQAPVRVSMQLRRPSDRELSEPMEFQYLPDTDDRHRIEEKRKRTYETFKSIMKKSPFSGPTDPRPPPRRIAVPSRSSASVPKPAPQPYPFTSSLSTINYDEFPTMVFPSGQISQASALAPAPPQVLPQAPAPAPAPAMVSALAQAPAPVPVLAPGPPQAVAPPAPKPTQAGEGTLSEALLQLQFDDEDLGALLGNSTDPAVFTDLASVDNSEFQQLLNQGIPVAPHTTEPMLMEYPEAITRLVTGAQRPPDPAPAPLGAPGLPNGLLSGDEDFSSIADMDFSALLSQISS

CC(=O)N[C@H]1C(O)O[C@H](CO)[C@@H](O)[C@@H]1O[C@H](C)C(=O)N[C@@H](C)C(=O)N[C@H](CCC(=O)O)C(N)=O (stereo not given in full) [MURAMYL DIPEPTIDE]
fold change (FC) [1]: 1.7 | EC50 [2]: 203 nM | Activity (Cavia porcellus [3]): 21 mm | Activity (Cavia porcellus [4]): 19 mm | fold change (FC) [5]: 4 | fold change (FC) [6]: 6.55

CC(=O)N[C@@H]1[C@@H](O[C@H](C)C(=O)N(C)[C@@H](C)C(=O)N[C@H](CCC(=O)O)C(N)=O)[C@H](O)[C@@H](CO)O[C@H]1O
fold change (FC) [7]: 1.1 | fold change (FC) [8]: 3 | fold change (FC) [9]: 1.5

CC(=O)N[C@@H]1[C@@H](O[C@H](C)C(=O)N[C@H](C)C(=O)N[C@H](CCC(=O)O)C(N)=O)[C@H](O)[C@@H](CO)O[C@H]1O
fold change (FC) [7]: 1 | fold change (FC) [8]: 1.6 | fold change (FC) [9]: 1.3

CC(=O)N[C@@H]1[C@@H](O[C@H](C)C(=O)NCC(=O)N[C@H](CCC(=O)O)C(N)=O)[C@H](O)[C@@H](CO)O[C@H]1O
fold change (FC) [7]: 2.8 | fold change (FC) [8]: 9.8 | fold change (FC) [9]: 1.3
